Laboratory results as given in ChEMBL document CHEMBL1201862, “PubChem BioAssay data set” (2004).
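Following 48 hours of exposure in 96-well plates, responses at five concentrations were used to interpolate endpoints linearly. GI50 = concentration required for 50% inhibition of growth.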 Activity calls are given as the source filed them. Cut-off read from the data, not from the text of the source: active = GI50 up to about 1.1 µM and inactive = higher.

Key:
Assay in all cases: growth of human tumour cells (NCI), 48 h
KM12 = test system: KM12
OVCAR-5 = test system: OVCAR-5
K562 = test system: K562
SNB-75 = test system: SNB-75
HL-60 = test system: HL-60
HOP-92 = test system: HOP-92
UACC-62 = test system: UACC-62
SK-MEL-2 = test system: SK-MEL-2
SK-OV-3 = test system: SK-OV-3
UO-31 = test system: UO-31
RPMI-8226 = test system: RPMI-8226
SK-MEL-28 = test system: SK-MEL-28
LOX IMVI = test system: LOX IMVI
A498 = test system: A498
SN12C = test system: SN12C
NCI-H23 = test system: NCI-H23
A549 = test system: A549

SMILES	GI50 (KM12)	GI50 (OVCAR-5)	GI50 (K562)	GI50 (SNB-75)	GI50 (HL-60)	GI50 (HOP-92)	GI50 (UACC-62)	GI50 (SK-MEL-2)	GI50 (SK-OV-3)	GI50 (UO-31)	GI50 (RPMI-8226)	GI50 (SK-MEL-28)	GI50 (LOX IMVI)	GI50 (A498)	GI50 (SN12C)	GI50 (NCI-H23)	GI50 (A549)
Cc1nc2ccccc2c(=O)n1NC(=S)Nc1ccccc1	> 100 µM (inactive)	> 100 µM (inactive)	> 100 µM (inactive)	4.99 µM (inactive)	> 100 µM (inactive)	85.1 µM (inactive)	> 100 µM (inactive)	> 100 µM (inactive)	> 100 µM (inactive)	88.9 µM (inactive)	> 100 µM (inactive)	> 100 µM (inactive)	> 100 µM (inactive)	> 100 µM (inactive)	> 100 µM (inactive)	84.3 µM (inactive)	> 100 µM (inactive)
C=C(COC(C)=O)CC(/C=C(\C)CCC=C(C)C)OC(C)=O (configuration not stated)	> 100 µM (inactive)	> 100 µM (inactive)	> 100 µM (inactive)	50.6 µM (inactive)	74.5 µM (inactive)	46.5 µM (inactive)	> 100 µM (inactive)	> 100 µM (inactive)	> 100 µM (inactive)	> 100 µM (inactive)	> 10 µM (inactive)	> 100 µM (inactive)	32.2 µM (inactive)	> 100 µM (inactive)	> 100 µM (inactive)	> 100 µM (inactive)	> 100 µM (inactive)
C=C(CS(=O)(=O)c1ccccc1)[P+](c1ccccc1)(c1ccccc1)c1ccccc1	14.7 µM (inactive)	33.9 µM (inactive)	4.65 µM (inactive)	12.6 µM (inactive)	9.16 µM (inactive)	24.5 µM (inactive)	22.9 µM (inactive)	> 100 µM (inactive)	27.3 µM (inactive)	27.5 µM (inactive)	3.06 µM (inactive)	11.1 µM (inactive)	13.5 µM (inactive)	35.7 µM (inactive)	12.3 µM (inactive)	20.4 µM (inactive)	34.3 µM (inactive)
COc1cc([C@@H]2c3cc4c(cc3[C@@H](NC(=O)c3ccc(N)cc3)C3COC(=O)[C@@H]32)OCO4)cc(OC)c1O (some centres not stated)	2.65 µM (inactive)	4.49 µM (inactive)	3.52 µM (inactive)	1.29 µM (inactive)	0.207 µM (active)	4.85 µM (inactive)	1.19 µM (inactive)	7.74 µM (inactive)	2.14 µM (inactive)	11.9 µM (inactive)	1.61 µM (inactive)	5.15 µM (inactive)	1.45 µM (inactive)	1.64 µM (inactive)	0.853 µM (active)	1.3 µM (inactive)	0.119 µM (active)
OC/C=C(\I)CCCOCOCc1ccccc1	> 100 µM (inactive)	45.4 µM (inactive)	40 µM (inactive)	53.1 µM (inactive)	15.9 µM (inactive)	15.7 µM (inactive)	34.6 µM (inactive)	19.2 µM (inactive)	> 100 µM (inactive)	25.4 µM (inactive)	18.2 µM (inactive)	37.9 µM (inactive)	19.2 µM (inactive)	60.8 µM (inactive)	42.9 µM (inactive)	26.3 µM (inactive)	32 µM (inactive)
COc1ccc(NC(=O)c2cc(OC)cc(OC)c2)cc1	4.49 µM (inactive)	> 59.8 µM (inactive)	4.74 µM (inactive)	27.9 µM (inactive)	6.98 µM (inactive)	> 100 µM (inactive)	11.3 µM (inactive)	25.9 µM (inactive)	31.4 µM (inactive)	44 µM (inactive)	18 µM (inactive)	45.7 µM (inactive)	17.6 µM (inactive)	35.4 µM (inactive)	67 µM (inactive)	41.1 µM (inactive)	12.1 µM (inactive)
